Data: patent publication US7709636B2, “Pyrazole sulfonylurea compound and herbicide” (Nissan Chemical Industries, Ltd., priority 2004, dated 2010)

Assays:
Echinochloa crus-galli [1] = experiment: Herbicidal effect test in submerged condition by treatment during weed-growth stage (1); type: in vivo; settings: 0.64 g/a, treated at 1st to 2nd leaf stage, 3 weeks after treatment
Protocol: (§1) Herbicidal Effect Test in Submerged Condition by Treatment During Weed-Growth Stage (1) After alluvial soil was placed in a styrol cup of 1/30000 are, water was poured therein and mixed, and adjusted to a submerged condition of water depth 4 cm. After seeds of Echinochloa crus-galli, Scirpus juncoides and Monochoria vaginalis were sown in the cup, the plants were grown by putting the cup in a green house at 25 to 30° C. When Echinochloa crus-galli, Scirpus juncoides and Monochoria vaginalis reached 1st to 2nd leaf stage, the wettable powder of the present invention prepared according to Formulation Example 1 was diluted with water so as to give a predetermined formulation amount, and the surface of the water was treated with the diluted wettable powder. The herbicidal effect for each plant was investigated 3 weeks after treatment with the herbicide according to the criteria indicated in Test Example 1.

Monochoria vaginalis = experiment: as above; type: in vivo; settings: 0.64 g/a, treated at 1st to 2nd leaf stage, 3 weeks after treatment
Protocol: as §1

Scirpus juncoides = experiment: as above; type: in vivo; settings: 0.64 g/a, treated at 1st to 2nd leaf stage, 3 weeks after treatment
Protocol: as §1

Abutilon avicennae = experiment: Herbicidal effect test by soil treatment; type: in vivo; settings: 1.6 g/a, 3 weeks after treatment
Text: (§2) Herbicidal Effect Test by Soil Treatment
(§3) Sterilized diluvial soil was placed in a plastic box having a size of length 21 cm, width 13 cm and depth 7 cm, seeds Echinochloa crus-galli, Digitaria adscendes, Setaria viridis, Avena fatua, Black-grass, Abutilon avicennae, Ambrosia elatior, Amaranthus retroflexus, Chenopodium album, Polygonum blumei, Stellaria media, Zea mays (corn), Glycine max (soybean), Oryza sativa (rice), Triticum aestivum (wheat) and Beta vulgaris (beat) were sown interspatially, covered with about 1.5 cm of soil, and then the wettable powder of the present invention prepared according to Formulation Example 1 was diluted with water so as to give a predetermined formulation amount, and the surface of the soil was uniformly treated with the diluted wettable powder by use of a small-sized spray. The herbicidal effect for each plant was investigated 3 weeks after treatment with the herbicide according to the criteria indicated in Test Example 1.

Amaranthus retroflexus = experiment: Herbicidal effect test by soil treatment; type: in vivo; settings: 1.6 g/a, 3 weeks after treatment
Text: as §2, §3

Ambrosia elatior = experiment: Herbicidal effect test by soil treatment; type: in vivo; settings: 1.6 g/a, 3 weeks after treatment
Text: as §2, §3

Avena fatua = experiment: Herbicidal effect test by soil treatment; type: in vivo; settings: 1.6 g/a, 3 weeks after treatment
Text: as §2, §3

Beta vulgaris (beet) = experiment: Herbicidal effect test by soil treatment; type: in vivo; settings: 1.6 g/a, 3 weeks after treatment
Text: as §2, §3

Black-grass = experiment: Herbicidal effect test by soil treatment; type: in vivo; settings: 1.6 g/a, 3 weeks after treatment
Text: as §2, §3

Chenopodium album = experiment: Herbicidal effect test by soil treatment; type: in vivo; settings: 1.6 g/a, 3 weeks after treatment
Text: as §2, §3

Digitaria adscendes = experiment: Herbicidal effect test by soil treatment; type: in vivo; settings: 1.6 g/a, 3 weeks after treatment
Text: as §2, §3

Echinochloa crus-galli [2] = experiment: Herbicidal effect test by soil treatment; type: in vivo; settings: 1.6 g/a, 3 weeks after treatment
Text: as §2, §3

Polygonum blumei = experiment: Herbicidal effect test by soil treatment; type: in vivo; settings: 1.6 g/a, 3 weeks after treatment
Text: as §2, §3

Setaria viridis = experiment: Herbicidal effect test by soil treatment; type: in vivo; settings: 1.6 g/a, 3 weeks after treatment
Text: as §2, §3

Stellaria media = experiment: Herbicidal effect test by soil treatment; type: in vivo; settings: 1.6 g/a, 3 weeks after treatment
Text: as §2, §3

[3] = system: Triticum aestivum (wheat); experiment: Herbicidal effect test by soil treatment; type: in vivo; settings: 1.6 g/a, 3 weeks after treatment
Text: as §2, §3

corn (Zea mays) = experiment: Herbicidal effect test by soil treatment; type: in vivo; settings: 1.6 g/a, 3 weeks after treatment
Text: as §2, §3

soybean (Glycine max) = experiment: Herbicidal effect test by soil treatment; type: in vivo; settings: 1.6 g/a, 3 weeks after treatment
Text: as §2, §3

direct sown rice = experiment: Herbicidal effect test by soil treatment; type: in vivo, Oryza sativa; settings: 1.6 g/a, 3 weeks after treatment
Text: as §2, §3

COc1cc(OC)nc(NC(=O)NS(=O)(=O)c2c(C3=NOC(C)CO3)c(C)nn2C)n1 (stereo not shown) [Compound 9, N-((4,6-dimethoxypyrimidin-2-yl)aminocarbonyl)-1,3-dimethyl-4-(6-methyl-5H,6H-1,4,2-dioxadin-3-yl)pyrazole-5-sulfonamide]
herbicidal effect, A: Echinochloa crus-galli (Echinochloa crus-galli [1]): 5 (Herbicidal rate 90% or more (almost complete death))
herbicidal effect, C: Monochoria vaginalis (Monochoria vaginalis): 5 (Herbicidal rate 90% or more (almost complete death))
herbicidal effect, B: Scirpus juncoides (Scirpus juncoides): 5 (Herbicidal rate 90% or more (almost complete death))
herbicidal effect, H: Abutilon avicennae (Abutilon avicennae): 4 (Herbicidal rate 70% or more and less than 90%)
herbicidal effect, J: Amaranthus retroflexus (Amaranthus retroflexus): 5 (Herbicidal rate 90% or more (almost complete death))
herbicidal effect, I: Ambrosia elatior (Ambrosia elatior): 5 (Herbicidal rate 90% or more (almost complete death))
herbicidal effect, F: Avena fatua (Avena fatua): 3 (Herbicidal rate 40% or more and less than 70%)
herbicidal effect, f: Beta vulgaris (beet) (Beta vulgaris (beet)): 5 (Herbicidal rate 90% or more (almost complete death))
herbicidal effect, G: Black-grass (Black-grass): 5 (Herbicidal rate 90% or more (almost complete death))
herbicidal effect, K: Chenopodium album (Chenopodium album): 5 (Herbicidal rate 90% or more (almost complete death))
herbicidal effect, D: Digitaria adscendes (Digitaria adscendes): 4 (Herbicidal rate 70% or more and less than 90%)
herbicidal effect, A: Echinochloa crus-galli (Echinochloa crus-galli [2]): 4 (Herbicidal rate 70% or more and less than 90%)
herbicidal effect, L: Polygonum blumei (Polygonum blumei): 5 (Herbicidal rate 90% or more (almost complete death))
herbicidal effect, E: Setaria viridis (Setaria viridis): 4 (Herbicidal rate 70% or more and less than 90%)
herbicidal effect, M: Stellaria media (Stellaria media): 5 (Herbicidal rate 90% or more (almost complete death))
herbicidal effect, e: Triticum aestivum (wheat) [3]: 5 (Herbicidal rate 90% or more (almost complete death))
herbicidal effect, b: corn (Zea mays) (corn (Zea mays)): 5 (Herbicidal rate 90% or more (almost complete death))
herbicidal effect, c: soybean (Glycine max) (soybean (Glycine max)): 5 (Herbicidal rate 90% or more (almost complete death))
herbicidal effect, d: direct sown rice (direct sown rice): 5 (Herbicidal rate 90% or more (almost complete death))
